Results on 19 compounds are retold here after patent US9366676B2, “Fluorescent chemical compounds having high selectivity for double stranded DNA, and methods for their use” (LIFE TECHNOLOGIES CORPORATION, priority 2005, dated 2016).

Each structure is given as a SMILES string.

For data set [1], the system named is calf thymus double stranded DNA and ribosomal RNA. Put plainly: Determination of DNA/RNA fluorescence ratios. The data set is classed as binding. The conditions noted are these: for DNA/RNA (fluorescence ratio): 65 ug/mL calf thymus dsDNA vs 65 ug/mL ribosomal RNA, 10 mM Tris, 1 mM EDTA pH 7.5, ratio of 1 = no selectivity; for ex/em: emission: emission value, second number of ex/em cell; for ex/em: excitation: excitation value, first number of ex/em cell. On the procedure: The tested compound was dissolved as a stock solution in DMSO at a concentration of about 0.1-1.0 mg/mL. The exact concentration is not critical. Three tubes are prepared, each containing the same 1-20 uL of stock solution. The first tube contained 10 mM Tris, 1 mM EDTA (pH 7.5) buffer; the second tube contained buffer and 65 ug/mL calf thymus double stranded DNA; and the third tube contained buffer and 65 ug/mL ribosomal RNA. The tubes were incubated at room temperature for 10-15 minutes with protection from light.
In some cases, it was necessary to dilute the sample to keep the fluorescence signal on-scale. In these cases, all three samples were diluted to the same degree. The ratio of the fluorescence of the compound in the presence of DNA and RNA was determined.
The following compounds were selected as representative of the inventive class of compounds. The fluorescence values in the presence of DNA and RNA were determined as described in the previous Example. […] A ratio of 1 would indicate no selectivity. Excitation and emission values are in nm

The subject of the next data set is Jurkat cells. Description: Flow cytometry with induced apoptosis cells (apoptosis time course). The data set is classed as cell-based, human. On the procedure:
Live Jurkat cells were split into 13 samples and each cell split was suspended in complete RMPI/10% FBS. Samples was treated with 10 μM Camptothecin in DMSO to induce apoptosis, or treated with DMSO alone to act as a control. Treatment and control time was 1, 2, 3, 4, 5, and 6 hours, and a time zero point. The cell suspensions were then incubated at 37° C./5% CO2 for a designated time. This type of experiment is sometimes called an “apoptosis time course”. Each split was washed once in complete RPMI media/10% Fetal Bovine Serum (FBS) and resuspended at 1×10^6 cells/mL in complete RPMI media with 10% FBS. […] A SYTOX® Blue stain vs compound (24) stain plot was made and a gate was made on compound (24) stain positive and SYTOX® Blue stain negative cells to gate out dead cells, and to ensure only live cells were analyzed. Fluorescence from the SYTOX® Blue stain was collected using 405 nm excitation laser with 450/50 bandpass and compound (24) stain fluorescence was collected at 585/42 bandpass using the 488 nm excitation laser as well as collected at the same 585/42 bandpass using the 532 nm excitation laser. […] The data was further analyzed using ModFit LT Flow Cytometry Modeling Software from Verity Software House, Inc. to look at ratio of G2/G1 and the CV of G1 phase and the percent sub-G0 population (apoptotic population).
A general note: In flow cytometry, cells or beads pass a laser one at a time.

Data set [2] concerns Jurkat cells (human T-lymphocyte). Put plainly: Flow cytometry cell cycle staining, live Jurkat cells. The following applies: 5 μM, 37° C., 60 minutes, ModFit. The format is cell-based. On the procedure: Live Jurkat cells (human T-lymphocyte) were suspended at 1×10^6 cells/ml in RPMI media with 10% Fetal Bovine Serum (FBS). 5 μM Compound (20) was added to one mL cell suspension, and incubated at 37° C. for 60 minutes protected from light. Cells were processed using a Becton Dickinson (BD) LSRII Flow Cytometer. A Forward Scatter (FS) vs Side Scatter (SS) dual parameter plot was used to gate main cell population. On gated cells, a dual-parameter plot of Fluorescence-Width vs Fluorescence-Area was used for single cell discrimination gating. Single color fluorescence was collected at 530/30 bandpass using the 488 nm excitation laser, collecting 30,000 events at flow rate of about 200 events/second. The data was further analyzed using ModFit LT Flow Cytometry Modeling Software from Verity Software House, Inc. to determine the ratio of G2/G1 and the CV of G1 phase.

A further data set deals with double stranded DNA. The following applies: cited from earlier work.
A further data set relates to DNA. The conditions noted are these: cited from earlier work.

In the case of `COc1cccc(OC)c1-c1ccc2c(c1)sc(C=C1C=C(SCCN(C)C)N(Cc3ccccc3)c3ccccc31)[n+]2C` [Compound 24], in data set [1], the “DNA/RNA (fluorescence ratio)” value is listed as 4.6, the “ex/em: emission” value came to 570 nm and the “ex/em: excitation” value was 520 nm. The excitation maximum in data set [1] (Example 114) was found to be 520 nm. Moreover, the emission maximum in data set [1] (Example 114 (orange)) amounted to 569 nm. In addition, the “staining of sub-G0 (apoptotic) population” value with Jurkat cells (10 μM, 37° C., 30 minutes, live Jurkat treated with 10 μM Camptothecin, 488 nm or 532 nm excitation) is “stains live cells for identification of a sub-G0 population in apoptotic cells which increases with time of induction”.
On to `COc1cccc(OC)c1-c1ccc2c(c1)sc(C=C1C=C(N3CCN(C)CC3)N(Cc3ccccc3)c3ccccc31)[n+]2C` [Compound 20], for which, in data set [1], the “DNA/RNA (fluorescence ratio)” value turned out to be 4, the “ex/em: emission” value came to 536 nm and the “ex/em: excitation” value was found to be 510 nm. Also, the G1-phase in data set [2] (488 nm excitation, 530/30 bandpass) was 47.08%. Also, in data set [2], the G2-phase is 6.25%, the G2/G1 ratio stood at 1.83 and the S-phase is given as 46.67%.
Take `CCCN(CCCN(C)C)C1=CC(=Cc2sc3cc(-c4c(OC)cccc4OC)ccc3[n+]2C)c2cc(OC)ccc2N1Cc1ccccc1` [Compound 39]: in data set [1], the “DNA/RNA (fluorescence ratio)” value is reported as 6.1, the “ex/em: emission” value is 536 nm and the “ex/em: excitation” value is given as 507 nm.
The corresponding values for `C[n+]1c(C=C2C=CN(Cc3ccccc3)c3ccccc32)sc2cc(-c3cc4ccccc4s3)ccc21` [Compound 95] are 1.9, 591 nm and 550 nm.
On to `COc1cccc(OC)c1-c1ccc2c(c1)sc(/C=C1\C=C(N(C)CCCC(=O)O)N(Cc3ccccc3)c3ccccc31)[n+]2C` [Compound 109], for which, in data set [1], the “DNA/RNA (fluorescence ratio)” value turned out to be 121, the “ex/em: emission” value was 525 nm and the “ex/em: excitation” value was 496 nm.
On to `COc1cccc(OC)c1-c1ccc2c(c1)sc(C=C1C=C(n3ccnc3)N(Cc3ccccc3)c3ccccc31)[n+]2C` [Compound 19], for which, in data set [1], the “DNA/RNA (fluorescence ratio)” value is listed as 7.3, the “ex/em: emission” value amounted to 553 nm and the “ex/em: excitation” value turned out to be 525 nm.
The corresponding values for `CN1C(=Cc2cc[n+](C)c3ccccc23)Sc2ccccc21` [Thiazole orange, reference compound] are 1, 530 nm and 510 nm.
The corresponding values for `CCCCC1=CC(=Cc2sc3cc(-c4c(OC)cccc4OC)ccc3[n+]2C)c2ccccc2N1Cc1ccccc1` [Compound 26] are 36, 541 nm and 505 nm.
On the same counts, the results for `CNCCCN(C)C1=CC(=Cc2sc3cc(-c4c(OC)cccc4OC)ccc3[n+]2C)c2ccccc2N1Cc1ccccc1` [Compound 23] are 3.8, 529 nm and 500 nm.
Take `C[n+]1cccc(-c2ccc3c(c2)sc(C=C2C=CN(Cc4ccccc4)c4ccccc42)[n+]3C)c1` [Compound 99]: in data set [1], the “DNA/RNA (fluorescence ratio)” value is given as 1.3, the “ex/em: emission” value was found to be 534 nm and the “ex/em: excitation” value is 511 nm.
With `CN(C)CCCN(CCCN(C)C)c1cc(C=C2Sc3ccccc3N2C)c2ccccc2[n+]1-c1ccccc1` [PicoGreen], the “fluorescence enhancement upon binding to double stranded DNA” value in the data set on double stranded DNA was “greater than 1000 fold”.
Turning to `COc1cccc(OC)c1-c1ccc2c(c1)sc(C=C1C=CN(Cc3ccc(CN(C)CCCN(C)C)cc3)c3ccccc31)[n+]2C` [Compound 47], in data set [1], the “DNA/RNA (fluorescence ratio)” value amounted to 8.6, the “ex/em: emission” value is 541 nm and the “ex/em: excitation” value is 512 nm.
On the same counts, the results for `COc1cccc(OC)c1-c1ccc2c(c1)sc(/C=C1\C=C(N(C)CCCC(=O)NCCOCCOCCOCCO)N(Cc3ccccc3)c3ccccc31)[n+]2C` [Compound 111] are 64, 527 nm and 497 nm.
The corresponding values for `CCN(CC)Cc1ccc(C2=CC(=Cc3sc4cc(-c5c(OC)cccc5OC)ccc4[n+]3C)c3ccccc3N2Cc2ccccc2)cc1` [Compound 25] are 9, 559 nm and 518 nm.
Regarding `CC[C@@]1(O)C(=O)OCc2c1cc1n(c2=O)Cc2cc3ccccc3nc2-1` [Camptothecin, reference compound], the “induction time at which sub-G0 population begins to show” value in the data set on Jurkat cells (10 μM Camptothecin in DMSO, live Jurkat, time course 0-6 hours) was found to be 3 h.
As for `CCCN(CCCN(C)C)C1=CC(=Cc2sc3cc(-c4c(OC)cccc4OC)ccc3[n+]2C)c2ccccc2N1C` [Compound 30], in data set [1], the “DNA/RNA (fluorescence ratio)” value is 5.7, the “ex/em: emission” value came to 527 nm and the “ex/em: excitation” value turned out to be 495 nm.
As to `CCCN(CCCN(C)C)c1cc(/C=C2/Sc3ccccc3N2C)c2ccccc2[n+]1-c1ccccc1` [SYBR Green I], in the data set on DNA, the “fluorescence enhancement upon binding to DNA, relative to ethidium bromide” value is given as “at least 10 fold” and the fluorescence quantum yield result is listed as “about 0.8”.
Turning to `COc1cccc(OC)c1-c1ccc2c(c1)sc(C=C1C=CN(Cc3ccncc3)c3ccccc31)[n+]2C` [Compound 55], in data set [1], the “DNA/RNA (fluorescence ratio)” value was 10.9, the “ex/em: emission” value worked out at 541 nm and the “ex/em: excitation” value is 513 nm.
On the same counts, the results for `CCCN(CCC[N+](C)(C)C)C1=CC(=Cc2sc3cc(-c4c(OC)cccc4OC)ccc3[n+]2C)c2ccccc2N1Cc1ccccc1` [Compound 31] are 10.5, 534 nm and 505 nm.
